{
  "source": "patent US8470964B2",
  "about": "“Peptides derived from NCAM (FGLs)” (Enkam Pharmaceuticals A/S, priority 2007, dated 2013)",
  "tested_on": "(25-35) β-amyloid peptide fragment induced cognitive deficits model in rats",
  "assay": "(25-35) β-amyloid induced cognitive deficits, intranasal administration, SRT",
  "type": "in vivo, rat",
  "details": "intranasal, 15 daily doses from day 7 to 21, test 24 hrs after the last administration",
  "from_the_text": "FIG. 9. Effects of intranasal administration of FGLs on the β-amyloid neurotoxicity induced deficit on performance in the Social Recognition Test. Rats received an intranasal administration of FGLs at the stated doses or vehicle daily at days 7 to 21 after i.c.v. administration of the (25-35) β-amyloid (A-β) fragment. 8-10 animals per group. Results are expressed as Means and SEM of Recognition Ratio and analyzed by one-sample t-test: **p<0.05.\nIn this study, the (25-35) β-amyloid peptide fragment induced cognitive deficits model in rats was used to investigate the dose-response (0.08, 0.32 or 1.28 mg/kg) effect of FGLs administered intranasally daily for 15 doses from day 7 to day 21 post β-amyloid peptide i.c.v. injection. The social memory performance was evaluated using the SRT, 22 days after the β-amyloid injection. A statistically significant impairment of short-term memory was observed as a consequence of the (25-35) β-amyloid neurotoxicity in the rats receiving the (25-35) β-amyloid fragment plus vehicle.",
  "data": [
    {"sequence": "EVYVVAENQQGKSKA [FGL, reference compound]", "values": [
      {"measurement": "minimum effective dose, impaired short-term memory (SRT)", "result": 1.28, "unit": "mg/kg"}
    ]}
  ]
}
